Read-outs that look alike come from different tables or passages of the source.
Columns and labels:
[1] = target: T1, integrin β3 cytoplasmic domain : tandem SH2 domains of Syk (GST-Syk(6-370)) (Homo sapiens, UniProt P43405); experiment: AlphaScreen of integrin β3 cytoplasmic domain peptide binding to GST-Syk(6-370)
T1 construct: the tandem SH2 domains of Syk (residues 6-370); made in house; host or cells: E. coli BL21(DE3)
Protocol: (§1) The following HTS assay was developed to identify antagonists of the interaction between the integrin β3 cytoplasmic domain and the non-receptor tyrosine kinase Syk. […] ( Figure 1E ). Background signals in this assay were determined by omitting the integrin β3 peptide. Specific assay conditions are described in Table 1 . […] Then, either dimethyl sulfoxide control or compound was added, followed by biotinylated β3 peptide, and avidin-coated AlphaScreen donor beads. After a 4-h incubation period at room temperature (while protected from light), assays plates were read on an Infinite M1000 (Tecan) multiplate reader (Ex. 680/30; Em. 570/100).
Figure 3 Dose-response curves in primary and orthogonal screens. (A) AlphaScreen dose-response curves. […] Data are expressed as mean fluorescence (Fl520) ± range from duplicates, and one representative experiment of “n” performed is shown. (B) Orthogonal ELISA-based dose-response assays. […] Data are expressed as mean abs450 ± SEM from triplicate determinations, and one of three representative experiments is shown. (C) Ceftazidime inhibition of β3 peptide binding to Syk from THP-1 whole cell lysate. THP-1 cell lysate (100 ug) was treated with or without ceftazidime (Ctaz) before incubation with β3-coated avidin-agarose beads, and bound Syk was measured by western blot (example shown in inset). Blank beads served as a negative control. Equal β3 peptide loading was verified by probing blots with avidin-HRP (not shown).

[2] = target: T2, integrin β2 cytoplasmic domain : GST-Syk(6-370) (Homo sapiens, UniProt P43405); experiment: AlphaScreen of integrin β2 cytoplasmic domain binding to Syk; conditions: read-out: antagonist activity against β2 (value without measure name), AlphaScreen
T2 construct: made in house; host or cells: E. coli BL21(DE3)
Protocol: as §1
(§2) Figure 4 Ceftazidime inhibition of integrin signaling. (A) Dose-response curves comparing ceftazidime antagonist activity against integrin β1A, β2, and β3 cytoplasmic domains binding to Syk as measured in AlphaScreen assays. […] Data are expressed as mean fluorescence (Fl520) ± the range from duplicate determinations. One of three experiments is shown. (B) Flow cytometric analysis of integrin α4β1, β2 subunit, αVβ3, and FcγRI (CD64) on THP-1 cells. Isotype control staining is shown as light gray histograms. Specific integrin staining is shown as darker gray histograms. […] One representative blot is shown (top), along with quantification of three separate experiments normalized to maximum Syk phosphorylation (bottom). Results are expressed as the mean ± SEM.

[3] = target: T3, integrin β1A cytoplasmic domain : GST-Syk(6-370) (Homo sapiens, UniProt P43405); experiment: AlphaScreen of integrin β1A cytoplasmic domain binding to Syk; conditions: read-out: antagonist activity against β1 (value without measure name), AlphaScreen
T3 construct: made in house; host or cells: E. coli BL21(DE3)
Protocol: as §1, §2

[4] = target: T4, full-length Syk (Homo sapiens, UniProt P43405); experiment: Syk kinase activity assay; assay type: biochemical; conditions: 100 uM, 100-fold higher than the AlphaScreen IC50
T4 construct: ceftazidime had no effect on the catalytic function of full-length Syk
Excerpt: Figure 6 Selective inhibition of integrin signaling by ceftazidime. (A) Schematic illustration of the pITAM-Syk AlphaScreen used to test antagonist selectivity. (B) Comparison between ceftazidime (Ctaz) and pITAM peptide inhibition of pITAM-Syk binding in the AlphaScreen assay described in (A). […] Data are expressed as mean ± range from duplicate determinations. One of four representative assays is shown. (C) Effect of ceftazidime on Syk kinase activity. Ceftazidime (Ctaz) or Syk inhibitor P505-15 was used at 100 uM. Kinase activity is expressed as percent of maximum signal. Data are expressed as mean ± SEM (n = 3). **p < 0.01 (D) Selective effects of ceftazidime on integrin signaling. […] Phosphorylation of Syk (left and right panel) and Pyk-2 (center panel) was analyzed by immunoprecipitation and western blot. […] Quantification is shown below (left panel, n = 5; center panel, n = 3; right panel, n = 3), normalized to phosphorylation in suspension. Results are expressed as the mean ± SEM. […] Expression of interleukin (IL)-1β and monocyte chemoattractant protein (MCP)-1 genes was examined by quantitative real-time polymerase chain reaction. Data are expressed as expression levels relative to control cells kept in suspension. […] P-values were calculated by the Student t test. […]

IC50 ([1]; Figure 3A: biotinylated-b3(sh) peptide 30 nM, GST-Syk(6-370) 0.3 nM, read-out: IC50, AlphaScreen dose-response): 1020 ± 200 nM
IC50 ([1]; abstract summary for both compounds, read-out: IC50 range, inhibition of integrin β-subunit cytoplasmic domain binding to the tandem SH2 domains of Syk): 1020 to 4900 nM
IC50 ([1]; as restated in the Discussion, read-out: IC50 in AlphaScreen assays): 1000 nM
IC50 ([1]; biotinylated β chain peptide 30 nM, GST-Syk(6-370) 0.3 nM, Figure 4A, read-out: antagonist activity against β3 (value without measure name), AlphaScreen): 1870 ± 200 nM
fold difference in inhibition, primary screen over false-positive counter screen (hit criterion) ([1]; re-sourced compounds, counter screen with biotinylated GST): greater than 3 fold
inhibition of fluorescent signal in the primary screen, re-sourced compounds (hit criterion) ([1]; re-sourced from a separate commercial source, 25 uM in text, 30 uM in legend of Figure 2C): greater than 50%
IC50 [2]: 1530 ± 210 nM
IC50 [3]: 1620 ± 410 nM
effect on the catalytic function of full-length Syk [4]: no effect
SMILES: CC(C)(O/N=C(\C(=O)N[C@@H]1C(=O)N2C(C(=O)[O-])=C(C[n+]3ccccc3)CS[C@H]12)c1csc(N)n1)C(=O)O [ceftazidime]

Reference: article PMC7819857, “Identification of Inhibitors of Integrin Cytoplasmic Domain Interactions With Syk” (Frontiers in Immunology, 2021)
